Values quoted from earlier work in US7488755B2, “Derivatives of glycinergic R(+)-2-amino-3-hydroxypropanoic acid” (Prestwick Pharmaceuticals, Inc., priority 2002, dated 2009).

Experiments:
schizophrenia patients = settings: 2 g/day, double-blind clinical trial, also in patients with little response to conventional antipsychotics
schizophrenic patients = settings: very high oral doses (>30 g/day)

Compound | efficacy in the treatment of schizophrenia (schizophrenia patients) | effect on negative symptoms in schizophrenic patients (schizophrenic patients)
N[C@H](CO)C(=O)O [D-serine] | effective in the treatment of schizophrenia | –
NCC(=O)O [glycine] | – | improvement in the negative symptoms
